These results are taken from ChEMBL document CHEMBL1909046, “DrugMatrix in vitro pharmacology data”.

Each structure is given as a SMILES string.

Sodium-dependent dopamine transporter, sequence (Q01959 whole entry): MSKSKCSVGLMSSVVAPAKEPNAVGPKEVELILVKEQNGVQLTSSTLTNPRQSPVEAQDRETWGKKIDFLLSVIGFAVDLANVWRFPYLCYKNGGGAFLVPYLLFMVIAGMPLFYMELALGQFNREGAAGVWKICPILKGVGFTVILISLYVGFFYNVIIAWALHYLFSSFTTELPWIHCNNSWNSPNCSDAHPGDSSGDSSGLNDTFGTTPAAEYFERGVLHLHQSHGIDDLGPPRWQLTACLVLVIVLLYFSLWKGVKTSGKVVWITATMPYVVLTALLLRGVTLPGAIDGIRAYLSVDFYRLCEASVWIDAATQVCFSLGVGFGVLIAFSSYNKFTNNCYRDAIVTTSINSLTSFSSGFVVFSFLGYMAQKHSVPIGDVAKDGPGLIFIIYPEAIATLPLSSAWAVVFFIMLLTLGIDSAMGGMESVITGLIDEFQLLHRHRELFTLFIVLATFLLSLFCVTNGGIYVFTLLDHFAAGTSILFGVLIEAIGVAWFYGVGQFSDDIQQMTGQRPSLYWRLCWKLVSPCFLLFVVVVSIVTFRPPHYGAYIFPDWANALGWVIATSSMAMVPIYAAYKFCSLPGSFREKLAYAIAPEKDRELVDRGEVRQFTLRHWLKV

For one experiment, the target named is T1, 3-hydroxy-3-methylglutaryl-coenzyme A reductase (Homo sapiens, UniProt P04035).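 Also: enzyme inhibition assay of HMG-CoA reductase using radiolabeled [14C]HMG-CoA as substrate; in other assays of this panel Not Active means under 50% inhibition at 10 µM.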
T1 sequence (P04035 whole entry): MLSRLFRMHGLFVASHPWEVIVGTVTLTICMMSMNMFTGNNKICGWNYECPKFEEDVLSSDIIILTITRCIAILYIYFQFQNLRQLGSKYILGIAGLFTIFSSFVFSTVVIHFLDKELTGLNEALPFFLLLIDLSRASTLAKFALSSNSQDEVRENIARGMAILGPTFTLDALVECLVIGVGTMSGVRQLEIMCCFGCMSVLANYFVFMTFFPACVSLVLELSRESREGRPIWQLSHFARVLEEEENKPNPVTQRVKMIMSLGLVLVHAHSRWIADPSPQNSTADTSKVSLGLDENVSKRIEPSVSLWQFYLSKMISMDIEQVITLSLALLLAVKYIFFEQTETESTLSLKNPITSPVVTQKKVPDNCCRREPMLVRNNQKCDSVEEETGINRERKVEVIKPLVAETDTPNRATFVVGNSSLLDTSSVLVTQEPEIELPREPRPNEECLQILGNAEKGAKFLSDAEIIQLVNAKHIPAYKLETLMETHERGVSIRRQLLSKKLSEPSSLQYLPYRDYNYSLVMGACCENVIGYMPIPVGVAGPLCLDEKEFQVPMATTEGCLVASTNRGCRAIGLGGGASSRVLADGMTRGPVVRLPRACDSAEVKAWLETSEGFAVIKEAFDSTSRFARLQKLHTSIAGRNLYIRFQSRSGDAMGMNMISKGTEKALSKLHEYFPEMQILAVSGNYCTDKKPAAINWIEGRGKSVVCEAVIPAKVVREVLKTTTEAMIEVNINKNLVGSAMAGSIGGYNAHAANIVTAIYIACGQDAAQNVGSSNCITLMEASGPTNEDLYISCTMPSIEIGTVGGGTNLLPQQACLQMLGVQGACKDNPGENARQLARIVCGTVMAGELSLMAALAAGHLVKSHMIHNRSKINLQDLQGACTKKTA
Further details: species or system Escherichia coli.
Conditions: not given
Consider `Cc1cc2c(OCC(CNC(C)(C)C)OC(=O)c3ccccc3)cccc2[nH]1` (stereo not given) [BOPINDOLOL], for which the IC50 entry is “Not Active”.

Turning to `Brc1c(NC2=NCCN2)ccc2nccnc12` [BRIMONIDINE], the IC50 result is recorded as “Not Active”.

Regarding `CN(C)[C@@H]1C(O)=C(C(N)=O)C(=O)[C@@]2(O)C(O)=C3C(=O)c4c(O)ccc(Cl)c4[C@@](C)(O)[C@H]3C[C@@H]12` [CHLORTETRACYCLINE], the IC50 result is reported as “Not Active”.

For a further experiment, the target named is T2, Vasoactive intestinal polypeptide receptor 1 (Homo sapiens, UniProt P32241). Also: in other assays of this panel Not Active means under 50% inhibition at 10 µM.
T2 sequence (P32241 whole entry): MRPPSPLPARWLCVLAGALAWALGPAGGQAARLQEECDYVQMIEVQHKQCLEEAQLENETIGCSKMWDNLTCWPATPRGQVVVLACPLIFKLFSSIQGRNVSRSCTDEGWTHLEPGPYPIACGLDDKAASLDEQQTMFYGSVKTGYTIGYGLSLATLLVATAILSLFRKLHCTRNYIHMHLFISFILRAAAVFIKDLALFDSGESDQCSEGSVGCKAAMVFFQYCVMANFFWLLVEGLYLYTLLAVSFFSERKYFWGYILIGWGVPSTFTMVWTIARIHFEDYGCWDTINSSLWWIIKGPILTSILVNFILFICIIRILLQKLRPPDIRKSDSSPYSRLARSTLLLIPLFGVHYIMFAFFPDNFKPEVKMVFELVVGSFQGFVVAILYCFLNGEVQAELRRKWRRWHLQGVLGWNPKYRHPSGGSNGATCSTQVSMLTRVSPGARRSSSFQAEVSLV
In kind it is cell membranes, Membrane. To be noted: ht-29.
In the case of `Cc1cc2c(OCC(CNC(C)(C)C)OC(=O)c3ccccc3)cccc2[nH]1` (stereo not given) [BOPINDOLOL], the IC50 result is given as “Not Active”.

Consider `Brc1c(NC2=NCCN2)ccc2nccnc12` [BRIMONIDINE], for which the IC50 entry is listed as “Not Active”.

Take `CN(C)[C@@H]1C(O)=C(C(N)=O)C(=O)[C@@]2(O)C(O)=C3C(=O)c4c(O)ccc(Cl)c4[C@@](C)(O)[C@H]3C[C@@H]12` [CHLORTETRACYCLINE]: the IC50 result was “Not Active”.

System in another experiment: not listed separately
In words: DRUGMATRIX: Potassium Channel [KATP] radioligand binding (ligand: [3H] Glyburide). In kind it is cell membranes, Membrane. To be noted: hit-t15; Not Active = under 50% inhibition at 10 µM.
`Cc1cc2c(OCC(CNC(C)(C)C)OC(=O)c3ccccc3)cccc2[nH]1` (stereo not given) [BOPINDOLOL]: the IC50 result is “Not Active” and the Ki entry was “Not Active”.

As to `Brc1c(NC2=NCCN2)ccc2nccnc12` [BRIMONIDINE], the IC50 result was “Not Active” and the Ki entry is recorded as “Not Active”.

Turning to `CN(C)[C@@H]1C(O)=C(C(N)=O)C(=O)[C@@]2(O)C(O)=C3C(=O)c4c(O)ccc(Cl)c4[C@@](C)(O)[C@H]3C[C@@H]12` [CHLORTETRACYCLINE], the IC50 entry was “Not Active” and the Ki entry is listed as “Not Active”.

System in a further experiment: not listed separately
In words: DRUGMATRIX: Atrial Natriuretic Factor (ANF) radioligand binding (ligand: [125I] ANF (rat)). The note with it: Not Active = under 50% inhibition at 10 µM. The experiment is classed as cell membranes, Cavia porcellus, Dunkin-Hartley, Adrenal gland, Membrane.
On to `Cc1cc2c(OCC(CNC(C)(C)C)OC(=O)c3ccccc3)cccc2[nH]1` (stereo not given) [BOPINDOLOL], for which the IC50 result is recorded as “Not Active” and the Ki entry is reported as “Not Active”.

Take `Brc1c(NC2=NCCN2)ccc2nccnc12` [BRIMONIDINE]: the IC50 result was “Not Active” and the Ki entry is “Not Active”.

Take `CN(C)[C@@H]1C(O)=C(C(N)=O)C(=O)[C@@]2(O)C(O)=C3C(=O)c4c(O)ccc(Cl)c4[C@@](C)(O)[C@H]3C[C@@H]12` [CHLORTETRACYCLINE]: the IC50 entry was “Not Active” and the Ki entry is “Not Active”.

The next experiment has as its target Sodium-dependent dopamine transporter (Homo sapiens, UniProt Q01959). In words: DRUGMATRIX: Dopamine Transporter radioligand binding (ligand: [125I] RTI-55). In kind it is cell membranes, CHO-K1, Membrane. The note with it: cho-k1; Not Active = under 50% inhibition at 10 µM.
For the molecule `Cc1cc2c(OCC(CNC(C)(C)C)OC(=O)c3ccccc3)cccc2[nH]1` (stereo not given) [BOPINDOLOL], the IC50 result is on record as “Not Active”.

Take `Brc1c(NC2=NCCN2)ccc2nccnc12` [BRIMONIDINE]: the IC50 result was “Not Active”.

As for `CN(C)[C@@H]1C(O)=C(C(N)=O)C(=O)[C@@]2(O)C(O)=C3C(=O)c4c(O)ccc(Cl)c4[C@@](C)(O)[C@H]3C[C@@H]12` [CHLORTETRACYCLINE], the IC50 result is reported as “Not Active”.

System in the next experiment: not listed separately
Nature of the experiment: DRUGMATRIX: Glutamate, Kainate radioligand binding (ligand: [3H] Kainic acid). The experiment is classed as cell membranes, Rattus norvegicus, Wistar, Brain, Membrane. The note with it: Not Active = under 50% inhibition at 10 µM.
For `Cc1cc2c(OCC(CNC(C)(C)C)OC(=O)c3ccccc3)cccc2[nH]1` (stereo not given) [BOPINDOLOL], the IC50 result is on record as “Not Active” and the Ki entry is given as “Not Active”.

`Brc1c(NC2=NCCN2)ccc2nccnc12` [BRIMONIDINE]: the IC50 entry is “Not Active” and the Ki entry is “Not Active”.

As for `CN(C)[C@@H]1C(O)=C(C(N)=O)C(=O)[C@@]2(O)C(O)=C3C(=O)c4c(O)ccc(Cl)c4[C@@](C)(O)[C@H]3C[C@@H]12` [CHLORTETRACYCLINE], the IC50 result was “Not Active” and the Ki result is listed as “Not Active”.

In another experiment the target is T3, Progesterone receptor (Bos taurus, UniProt Q690N0).
T3 sequence (Q690N0 whole entry): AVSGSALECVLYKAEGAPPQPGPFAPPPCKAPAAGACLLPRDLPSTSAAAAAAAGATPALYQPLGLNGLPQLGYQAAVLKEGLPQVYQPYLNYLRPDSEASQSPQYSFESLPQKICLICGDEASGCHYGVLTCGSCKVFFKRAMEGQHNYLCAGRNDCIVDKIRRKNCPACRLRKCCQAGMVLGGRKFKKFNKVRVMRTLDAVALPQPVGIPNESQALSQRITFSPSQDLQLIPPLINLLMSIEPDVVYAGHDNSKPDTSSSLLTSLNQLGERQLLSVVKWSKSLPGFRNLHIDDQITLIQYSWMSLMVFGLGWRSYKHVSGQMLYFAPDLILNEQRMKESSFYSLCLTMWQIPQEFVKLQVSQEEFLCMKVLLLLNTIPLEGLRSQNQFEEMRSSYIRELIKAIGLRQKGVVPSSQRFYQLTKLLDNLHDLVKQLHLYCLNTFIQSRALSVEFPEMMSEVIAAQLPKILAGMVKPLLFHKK
Nature of the experiment: DRUGMATRIX: Progesterone radioligand binding (ligand: [3H] R-5020). The experiment is classed as tissue-based, Uterus. To be noted: Not Active = under 50% inhibition at 10 µM.
As for `Cc1cc2c(OCC(CNC(C)(C)C)OC(=O)c3ccccc3)cccc2[nH]1` (stereo not given) [BOPINDOLOL], the IC50 result is “Not Active”.

In the case of `Brc1c(NC2=NCCN2)ccc2nccnc12` [BRIMONIDINE], the IC50 result is listed as “Not Active”.

With `CN(C)[C@@H]1C(O)=C(C(N)=O)C(=O)[C@@]2(O)C(O)=C3C(=O)c4c(O)ccc(Cl)c4[C@@](C)(O)[C@H]3C[C@@H]12` [CHLORTETRACYCLINE], the IC50 entry is listed as “Not Active”.
